Test: Pharmacokinetic study of 157 (and metabolite endothal) in SD rats, iv and po; plasma, liver, brain
Type: in vivo
Details: for endothal detectable in brain samples: after single iv 157 at 1.5 mg/kg; for Cmax: female, rat, in vivo, iv
Experimental: The blood, liver and brain tissue samples were collected at predetermined times from rats. […] Compound were diluted shortly before use in 4% sodium bicarbonate for sterile injection (this is the standard pediatric solution of NaHCO3 with a pH of about 8.5).
Compound 153 was freshly prepared by diluting the drugs shortly before use in 4% sodium bicarbonate for sterile injection (this is the standard pediatric solution of NaHCO3 with a pH of about 8.5). The final concentrations of 153 solutions were 0.25 mg/mL. The 153 solutions were administered via iv or po route at dose volume of 5 ml/kg according to the latest body weight. Compound 157 was freshly prepared by diluting the drugs shortly before use in 4% sodium bicarbonate for sterile injection (this is the standard pediatric solution of NaHCO3 with a pH of about 8.5). The final concentrations of […] solutions were 0.3 mg/mL. The 157 solutions were administered via iv or po route at dose volume of 5 ml/kg according to the latest body weight.
Twelve (12) female SD rats per group were dosed by iv with 153 or 157. The rats were fasted overnight prior to dosing, with free access to water. Foods were withheld for 2 hours post-dose. Blood, liver and brain tissue samples in two animals each group were collected at each time point, within 10% of the scheduled time for each time point. Two extra animals were used for analytic method development.
Blood (>0.3 mL) were collected via aorta abdominalis in anaesthetic animals into tubes containing heparin at 15 min, 1, 2, 6, 10 and 24 hours after iv administration. Liver and brain tissues were collected immediately after animal death. The liver and brain tissues were excised and rinsed with cold saline to avoid blood residual. Upon collection, each sample was placed on ice and the blood samples were subsequently centrifuged (4° C., 11000 rpm, 5 min) to separate plasma. The obtained plasma, liver and brain tissue samples were stored at −70° C. until LC-MS/MS analysis.
Two (2) female SD rats per group were dosed by po with 153 or 157. The rats were fasted overnight prior to dosing, with free access to water. Foods were withheld for 2 hours post-dose. Blood samples (>0.3 mL) were collected via aorta abdominalis in anaesthetic animals into tubes containing heparin at 30 min, 1, 2, 6, 10 and 24 hours after po administration.
To each sample, 30 μL IS-D (for blank samples, 20 μL acetonitrile:water (1:1) was added) and 300 μl acetonitrile was added. The sample mixture was vortexed for approximately 3 min. After centrifugation at 10000 rpm for 5 min at 4° C., 100 μL of the upper layer was transferred to a new tube and added 200 μL 0.4% formic acid in water (pH6.0). The mixture was vortexed for approximately 3 min before injected onto the LC/MS/MS system for analysis.
On the day of the assay, the frozen liver and brain samples were thawed unassisted at room temperature. An about 200 mg weighed sample of each thawed tissue was placed into a plastic tube with water (0.6 mL) to facilitate homogenization. Tissue processing was conducted using a homogenizer for approximately 1 min, 100 μl homogenate was transferred into a fresh Eppendorf tube. To each tube, 50 μL IS-D was added and mixed. Then 500 μl acetonitrile was added and the sample mixture was vortexed for approximately 3 min. After centrifugation at 10000 rpm for 5 min at 4° C., 100 μL of the upper layer was transferred to a new tube and evaporate the supernatant to dryness at 35° C. Reconstitute the residue with 200 μL of 0.4% formic acid in water (pH 6.0), and vortex for 3 min, submit for LC-MS/MS analysis.
Frozen unknown plasma samples were completely thawed at room temperature and vortexed thoroughly. With a pipette, 50 μL of plasma was transferred into a 2.0 mL Eppendorf tube. 50 μL of 0.1N HCl and 800 μL ethyl acetate were added into each sample. The sample mixture was vortexed for approximately 3 min.

## O=C(O)C1C2CCC(O2)C1C(=O)O (stereo not shown) [Endothal, 7-oxabicyclo[2.2.1]heptane-2,3-dicarboxylic acid]
After iv 157, 10 hr, Rat 1
  Endothal plasma concentration: BLQ
After iv 157, 10 hr, Rat 2
  Endothal plasma concentration: BLQ
After iv 157, 24 hr, Rat 1
  Endothal plasma concentration: BLQ
After iv 157, 24 hr, Rat 2
  Endothal plasma concentration: BLQ
After po 157, 10 hr, Rat 1
  Endothal plasma concentration: BLQ
After po 157, 10 hr, Rat 2
  Endothal plasma concentration: BLQ
1.5 mg/kg
  endothal detectable in brain samples: undetectable
Listed as endothal, 1.5 mg/kg
  endothal detectable in brain samples: not detectable
SD, 1.5 mg/kg
  Cmax: 3720 ng/g
Sprague-Dawley (SD)
  Cmax: 3720 ng/g
